Measurements taken from PubChem BioAssay (NCI).
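1) Cells in 96-well plates. 2) Compound, 48 h, 5 concentrations. 3) Linear interpolation between surrounding doses. 4) Unreached endpoint = highest concentration. GI50 is the concentration that inhibits growth by half. At the TGI there is no net growth.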

Legend:
Assay in all cases: NCI anticancer screen, dose series, 48 h
A549 NSCLC = system: A549 NSCLC
HCT-116 colon = system: HCT-116 colon
MALME-3M melanoma = system: MALME-3M melanoma
ACHN renal = system: ACHN renal
IGROV1 ovarian = system: IGROV1 ovarian
HOP-92 NSCLC = system: HOP-92 NSCLC
OVCAR-4 ovarian = system: OVCAR-4 ovarian
HT29 colon = system: HT29 colon
NCI-H460 lung = system: NCI-H460 lung
M14 melanoma = system: M14 melanoma
SNB-19 CNS = system: SNB-19 CNS

Compound | TGI (A549 NSCLC) [µM] | TGI (HCT-116 colon) [µM] | TGI (MALME-3M melanoma) [µM] | TGI (ACHN renal) [µM] | TGI (IGROV1 ovarian) [µM] | TGI (HOP-92 NSCLC) [µM] | TGI (OVCAR-4 ovarian) [µM] | TGI (HT29 colon) [µM] | TGI (NCI-H460 lung) [µM] | TGI (M14 melanoma) [µM] | TGI (SNB-19 CNS) [µM] | GI50 (A549 NSCLC) [µM] | GI50 (MALME-3M melanoma) [µM] | GI50 (ACHN renal) [µM] | GI50 (IGROV1 ovarian) [µM] | GI50 (HOP-92 NSCLC) [µM] | GI50 (OVCAR-4 ovarian) [µM] | GI50 (HT29 colon) [µM] | GI50 (NCI-H460 lung) [µM] | GI50 (SNB-19 CNS) [µM]
COC(=O)C1(Cc2ccc3c(c2)CCC3)Cc2ccc3c(c2C1=O)CCC3 (configuration not stated) | > 100 | > 100 | > 63.8 | > 100 | > 100 | 54 | > 66.7 | > 34.8 | > 63.9 | 33.1 | > 100 | – | – | – | – | – | – | – | – | –
CCOC(=O)/C(C(N)=O)=C(\O)C(=O)/C=C(\O)c1ccc(Cl)cc1 | > 100 | 28.7 | 45.1 | 39.7 | 36.2 | 53.9 | > 100 | 41.4 | 31.5 | 48.3 | > 100 | – | – | – | – | – | – | – | – | –
O=C(N/N=C\c1ccc(Cl)cc1)Nc1ccc2ccccc2c1 | > 100 | > 100 | > 100 | > 100 | > 100 | 77.7 | 39.2 | > 100 | > 100 | > 100 | > 100 | – | – | – | – | – | – | – | – | –
O=C1OC(C(O)CO)C(C(O)CO)OC1=O (configuration not stated) | > 10 | – | > 10 | > 10 | > 10 | – | > 10 | > 10 | > 10 | > 10 | > 10 | – | – | – | – | – | – | – | – | –
CC1[C@@]2(O[C@@H]3C=C4C5CCC6Cc7nc8c(nc7C[C@@]6(C)C5C[C@H](O)[C@@]4(C)[C@]13O)CC1CCc3c(cc4c5c3C(O)C[C@H]5[C@@H](C)C3(O4)OC(C)(C)CC3O)[C@]1(C)C8)O[C@@](C)(CO)C[C@@H]2O (some centres not stated) | > 3.72 | > 3.72 | 2.22 | – | > 3.72 | – | – | 1.65 | > 3.72 | – | > 3.72 | – | – | – | – | – | – | – | – | –
Nc1cc(OCC2CCCCC2)nc(N)n1 | > 100 | > 100 | > 100 | > 100 | > 100 | > 100 | > 100 | > 100 | > 100 | > 100 | > 100 | – | – | – | – | – | – | – | – | –
O=C1CCCC2=C1CC1=C(CCCC1=O)N2c1ccc(Cl)cc1 | > 100 | > 100 | > 100 | > 100 | > 100 | – | > 100 | > 100 | > 100 | > 100 | > 100 | – | – | – | – | – | – | – | – | –
O=C1c2c(c3c4cc(F)ccc4oc3c3[nH]c4ccccc4c23)C(=O)N1O | > 100 | – | 6.46 | 1.73 | 11.1 | 5.15 | > 100 | > 100 | 10.6 | – | 24.9 | 27.1 | 1.37 | 0.398 | 0.46 | 1.44 | 4.82 | 3.06 | 0.565 | 1.79
CCOP(=O)(OCC)C(c1ccc(F)cc1)N(C(=O)NC(F)(F)F)c1ccc(F)cc1 (configuration not stated) | > 100 | > 100 | > 100 | > 100 | > 100 | – | – | > 100 | > 100 | > 100 | > 100 | – | – | – | – | – | – | – | – | –
O=C(O)c1ccc2c(O)c(O)ccc2c1 | > 93.8 | 79.7 | > 74.6 | 29.3 | 38.2 | > 84.3 | 54.1 | 21.2 | – | 61.8 | 36.1 | – | – | – | – | – | – | – | – | –
O=c1c(NCc2ccccc2)c(C2(c3ccccc3F)SCCCS2)c1=O | > 100 | > 100 | – | > 100 | > 100 | > 100 | > 100 | > 100 | > 100 | > 100 | > 100 | – | – | – | – | – | – | – | – | –
CN1C/C(=C\c2cccs2)C2=NN(c3ccccc3)C(c3cccs3)C2C1 (configuration not stated) | > 100 | > 35.7 | > 51.1 | > 100 | > 25.5 | – | > 100 | 22.4 | > 100 | > 68.3 | > 100 | – | – | – | – | – | – | – | – | –
COc1cc(/C=C2\C(=O)N(c3cccc(NC(C)=O)c3)C(c3ccccc3)S2(=O)=O)cc(OC)c1OC (configuration not stated) | > 100 | > 100 | > 100 | > 100 | > 100 | > 100 | > 100 | > 100 | > 100 | > 100 | > 100 | – | – | – | – | – | – | – | – | –
N=C1OC(CN2CCN(c3ccccc3)CC2)CN1C(=O)Nc1ccccc1 (configuration not stated) | > 100 | > 100 | > 100 | > 100 | > 100 | > 100 | > 100 | > 100 | > 100 | > 100 | > 100 | – | – | – | – | – | – | – | – | –
COc1ccc2c(c1)/C(=C\c1c(Cl)nc3n1CCS3)C(=O)N2 | > 100 | 25.5 | > 100 | > 100 | > 100 | > 100 | > 100 | 16.3 | 18.9 | > 100 | > 100 | – | – | – | – | – | – | – | – | –
COP(=O)(OC)C(N)Cc1c[nH]c2ccccc12 (configuration not stated) | > 100 | > 100 | – | > 100 | > 100 | – | > 100 | > 100 | > 100 | > 100 | > 100 | – | – | – | – | – | – | – | – | –
Cc1nc2c(Cl)cc(Cl)cc2c2c1CCO2 | > 100 | > 100 | > 100 | > 100 | > 100 | > 100 | > 100 | > 100 | > 100 | > 100 | > 100 | – | – | – | – | – | – | – | – | –
O=C(Cn1c2ccc(Br)cc2c2nc3ccccc3nc21)NCc1ccccc1 | > 100 | > 100 | > 100 | 41.7 | > 100 | 13.1 | > 100 | > 100 | > 100 | > 100 | 72.4 | – | – | – | – | – | – | – | – | –
CCCC(=O)OCC1OC(n2cc(F)c(=O)[nH]c2=O)CC1OC(=O)CCC (configuration not stated) | > 10 | > 10 | > 10 | > 10 | > 10 | > 10 | > 10 | > 10 | > 10 | > 10 | > 10 | – | – | – | – | – | – | – | – | –
